Experimental findings from patent publication US4201774A, “Novel aminoglycoside derivatives” (Shionogi & Co., Ltd., priority 1977, dated 1980) are described below.

SMILES strings stand for the structures. Converted amounts (≈) assume the structure as drawn.

Test [1] has as its system Proteus mirabilis TB-617. The test is described as follows: MIC, Proteus mirabilis TB-617*. The following applies: TB617; Proteus mirabilis TB-617, tobramycin resistant strain; read-out: minimum inhibitory concentration (MIC). In kind it is cell-based.
The subject of test [2] is Pseudomonas aeruginosa TB-485. The test can be described thus: MIC, Pseudomonas aeruginosa TB-485*. The following applies: TB485; Pseudomonas aeruginosa TB-485, tobramycin resistant strain; read-out: minimum inhibitory concentration (MIC). In kind it is cell-based.

As to `NC[C@H]1O[C@H](O[C@H]2[C@H](O)[C@@H](O[C@H]3O[C@H](CO)[C@@H](O)[C@H](N)[C@H]3O)[C@H](NCC3(O)CNC3)C[C@@H]2N)[C@H](N)C[C@@H]1O` [Test compound (1), 1-N-[(3-hydroxyazetidin-3-yl)methyl]tobramycin], the results for the MIC in test [1] and in test [2] were 1.56 µg/mL (≈ 2.82 µM) and 6.25 µg/mL (≈ 11.3 µM), respectively.

For `NC[C@H]1O[C@H](O[C@H]2[C@H](O)[C@@H](O[C@H]3O[C@H](CO)[C@@H](O)[C@H](N)[C@H]3O)[C@H](NCC3(O)CCNC3)C[C@@H]2N)[C@H](N)C[C@@H]1O` (stereo partly shown) [Test compound (2), 1-N-[(3-hydroxypyrrolidin-3-yl)methyl]tobramycin], the figures for the MIC in test [1] and in test [2] were 1.56 µg/mL (≈ 2.75 µM) and 3.13 µg/mL (≈ 5.52 µM), respectively.

For `NC[C@H]1O[C@H](O[C@H]2[C@H](O)[C@@H](O[C@H]3O[C@H](CO)[C@@H](O)[C@H](N)[C@H]3O)[C@H](NCC3(O)CNC3)C[C@@H]2N)[C@H](O)[C@@H](O)[C@@H]1O` [Test compound (3), 1-N-[(3-hydroxyazetidin-3-yl)methyl]kanamycin A], the MIC in test [1] and in test [2] was 6.25 µg/mL (≈ 11 µM) each time.

As for `NC[C@H]1O[C@H](O[C@H]2[C@H](O)[C@@H](O[C@H]3O[C@H](CO)[C@@H](O)[C@H](N)[C@H]3O)[C@H](NCC3(O)CCNC3)C[C@@H]2N)[C@H](O)[C@@H](O)[C@@H]1O` (stereo partly shown) [Test compound (4), 1-N-[(3-hydroxypyrrolidin-3-yl)methyl]kanamycin A], the figures for the MIC in test [1] and in test [2] were 3.13 µg/mL (≈ 5.36 µM) and 6.25 µg/mL (≈ 10.7 µM), respectively.

With `NC[C@H]1O[C@H](O[C@H]2[C@H](O)[C@@H](O[C@H]3O[C@H](CO)[C@@H](O)[C@H](N)[C@H]3O)[C@H](N)C[C@@H]2N)[C@H](N)C[C@@H]1O` [Test compound (5), tobramycin, reference compound], the MIC in test [1] stood at 6.25 µg/mL (≈ 13.4 µM); in test [2], 25 µg/mL (≈ 53.5 µM).
